In patent publication US10023602B2, “Hamamelitannin analogues and uses thereof” (Universiteit Gent, priority 2014, dated 2018):

Key:
[1] = system: methicillin resistant S. aureus Mu50 strain (S. aureus ATCC700699) biofilm; test: Biofilm susceptibility to vancomycin, pre-treatment regimen (biofilm formed in presence of compound, then vancomycin); assay type: cell-based; settings: for EC50: concentration needed to get 50% killing compared to antibiotic alone (VAN 20 μg/ml) and complete killing, read-out: Pretreat. (EC50); for Pretreat (100 μM): percentage Colony Forming Units (CFU's) per biofilm: compound 100 μM during biofilm formation
Procedure, shortened: (§1)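 Mu50 biofilms from 10^8 CFU/ml inoculum (4 h adhesion, then 20 h, 37 °C). Pre-treatment: compound (0.1-250 μM) present during biofilm formation, then vancomycin 20 μg/ml alone 24 h; combination: mature biofilm given vancomycin 20 μg/ml plus compound 24 h. Survivors counted by plating versus vancomycin alone.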

[2] = system: methicillin resistant S. aureus Mu50 strain (S. aureus ATCC700699) biofilm; test: Biofilm susceptibility to vancomycin, combination treatment regimen (mature biofilm treated with compound plus vancomycin); assay type: cell-based; settings: for EC50: concentration needed to get 50% killing compared to antibiotic alone (VAN 20 μg/ml) and complete killing, read-out: Combin. (EC50); for Combin. (100 μM): percentage Colony Forming Units (CFU's) per biofilm: compound 100 μM together with VAN 20 μg/ml on mature biofilm
Procedure, shortened: as §1

[3] = then VAN 20 μg/ml, compared to the untreated (negative) control
[4] = compared to the untreated (negative) control

| Compound | Pretreat. (25 μM): percentage Colony Forming Units (CFU's) per biofilm ([1]; compound 25 μM during biofilm formation, then VAN 20 μg/ml, compared to the untreated (negative) control) [percentage] | EC50 [1] [µM] | Combin. (25 μM): percentage Colony Forming Units (CFU's) per biofilm ([2]; compound 25 μM together with VAN 20 μg/ml on mature biofilm, compared to the untreated (negative) control) [percentage] | EC50 [2] [µM] | Pretreat (100 μM): percentage Colony Forming Units (CFU's) per biofilm [1, 3] [percentage] | Combin. (100 μM): percentage Colony Forming Units (CFU's) per biofilm [2, 4] [percentage] |
| --- | --- | --- | --- | --- | --- | --- |
| O=C(NC[C@]1(O)CO[C@H](CNC(=O)c2ccccc2Cl)[C@H]1O)c1ccccc1F [compound 245, 2-chloro-N-(((2R,3R,4S)-4-((2-fluorobenzamido)methyl)-3,4-dihydroxytetrahydrofuran-2-yl)methyl)benzamide] | 61.75 | 48.6 | 44.14 | 62.2 | – | – |
| COc1cc(C(=O)NC[C@H]2OC(O)[C@@](O)(CNC(=O)c3cc(OC)c(OC)c(OC)c3)[C@@H]2O)cc(OC)c1OC (stereo partly drawn) [compound 16, N,N′-(((2R,3R,4R)-3,4,5-trihydroxytetrahydrofuran-2,4-diyl)bis(methylene))bis(3,4,5-trimethoxybenzamide)] | – | 207 | – | 238 | 62.41 | 71.85 |
| O=C(NC[C@]1(O)CO[C@H](CNS(=O)(=O)C(F)(F)F)[C@H]1O)c1ccccc1 [compound 214, N-(((3S,4R,5R)-3,4-dihydroxy-5-(((trifluoromethyl)sulfonamido)methyl)tetrahydrofuran-3-yl)methyl)benzamide] | – | – | – | – | 29.28 | 42.85 |
| O=C(NC[C@H]1OC[C@@](O)(CNC(=O)c2ccccc2)[C@@H]1O)c1ccc(F)c(F)c1 [compound 181, N-(((2R,3R,4S)-4-(benzamidomethyl)-3,4-dihydroxytetrahydrofuran-2-yl)methyl)-3,4-difluorobenzamide] | – | – | – | – | 67.74 | 59.09 |
| O=C(NC[C@H]1OC[C@@](O)(CNC(=O)c2ccccc2)[C@@H]1O)c1cccc(-c2ccccc2)c1 [compound 168, N-(((2R,3R,4S)-4-(benzamidomethyl)-3,4-dihydroxytetrahydrofuran-2-yl)methyl)-[1,1′-biphenyl]-3-carboxamide] | – | – | – | – | 9.830 | 32.61 |
| O=C(NC[C@H]1OC(O)[C@@](O)(CNC(=O)c2ccc(O)cc2)[C@@H]1O)c1ccc(O)cc1 (stereo partly drawn) [compound 20, N,N′-(((2R,3R,4R)-3,4,5-trihydroxytetrahydrofuran-2,4-diyl)bis(methylene))bis(4-hydroxybenzamide)] | – | 85.6 | – | 52.3 | 19.78 | 27.23 |
| O=C(NC[C@H]1OC(O)[C@@](O)(CNC(=O)c2ccccc2)[C@@H]1O)c1ccccc1 (stereo partly drawn) [compound 21, N,N′-(((2R,3R,4R)-3,4,5-trihydroxytetrahydrofuran-2,4-diyl)bis(methylene))dibenzamide] | – | 73.6 | – | 154 | 18.04 | 56.02 |
| O=C(NC[C@H]1OC[C@@](O)(CNC(=O)c2ccccc2)[C@@H]1O)c1ccc(-c2ccccc2)cc1 [compound 159, N-(((2R,3R,4S)-4-(benzamidomethyl)-3,4-dihydroxytetrahydrofuran-2-yl)methyl)-[1,1′-biphenyl]-4-carboxamide] | – | 6.38 | – | 11.3 | 10.97 | 6.966 |
| O=C(NC[C@]1(O)CO[C@H](CNC(=O)c2ncccn2)[C@H]1O)c1ccccc1 [compound 203, N-(((2R,3R,4S)-4-(benzamidomethyl)-3,4-dihydroxytetrahydrofuran-2-yl)methyl)pyrimidine-2-carboxamide] | – | – | – | – | 41.20 | 31.95 |
